Measurements published in ChEMBL document CHEMBL1201862, “PubChem BioAssay data set” (2004).
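Protocol summary: plate cells (96-well), add compound at 5 concentrations, incubate 48 h, interpolate endpoints linearly. GI50 = concentration required for 50% inhibition of growth.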 Activity calls are given as the source filed them. Rule as the data show it: active = GI50 up to about 1.1 µM and inactive = higher.

Columns and labels:
Assay in all cases: inhibition of tumour cell growth, NCI panel, 48 h
MOLT-4 = system: MOLT-4
SF-268 = system: SF-268
CAKI-1 = system: CAKI-1
NCI-H226 = system: NCI-H226
UACC-62 = system: UACC-62
TK-10 = system: TK-10
OVCAR-8 = system: OVCAR-8
SNB-75 = system: SNB-75
MCF7 = system: MCF7
UO-31 = system: UO-31
SK-MEL-28 = system: SK-MEL-28
786-0 = system: 786-0
Hs-578T = system: Hs-578T
NCI/ADR-RES = system: NCI/ADR-RES
HL-60 = system: HL-60
SK-OV-3 = system: SK-OV-3
HT-29 = system: HT-29
HCT-116 = system: HCT-116
U-251 = system: U-251
OVCAR-3 = system: OVCAR-3
IGROV-1 = system: IGROV-1
EKVX = system: EKVX
M14 = system: M14
MDA-MB-231 = system: MDA-MB-231
OVCAR-4 = system: OVCAR-4
NCI-H522 = system: NCI-H522
DU-145 = system: DU-145
SF-295 = system: SF-295
SR = system: SR
PC-3 = system: PC-3
A498 = system: A498
T47D = system: T47D
SNB-19 = system: SNB-19
CCRF-CEM = system: CCRF-CEM
UACC-257 = system: UACC-257
SK-MEL-5 = system: SK-MEL-5
SN12C = system: SN12C
NCI-H460 = system: NCI-H460
COLO 205 = system: COLO 205
SK-MEL-2 = system: SK-MEL-2
HOP-92 = system: HOP-92
HCC 2998 = system: HCC 2998
HCT-15 = system: HCT-15
LOX IMVI = system: LOX IMVI
Malme-3M = system: Malme-3M
SW-620 = system: SW-620
ACHN = system: ACHN
NCI-H23 = system: NCI-H23
HOP-62 = system: HOP-62
MDA-N = system: MDA-N
KM12 = system: KM12
MDA-MB-435 = system: MDA-MB-435
RXF 393 = system: RXF 393
SF-539 = system: SF-539
OVCAR-5 = system: OVCAR-5
A549 = system: A549
BT-549 = system: BT-549
K562 = system: K562
RPMI-8226 = system: RPMI-8226

CCOC(=S)SC/C(=N\OC(C)(C)OC)c1ccccc1
GI50 (MOLT-4): 20 µM (inactive)
GI50 (SF-268): 56.9 µM (inactive)
GI50 (CAKI-1): > 100 µM (inactive)
GI50 (NCI-H226): 43.8 µM (inactive)
GI50 (UACC-62): 31.3 µM (inactive)
GI50 (TK-10): 46.6 µM (inactive)
GI50 (OVCAR-8): 88.7 µM (inactive)
GI50 (SNB-75): 0.453 µM (active)
GI50 (MCF7): 29.2 µM (inactive)
GI50 (UO-31): 31.2 µM (inactive)
GI50 (SK-MEL-28): 47.3 µM (inactive)
GI50 (786-0): 55.1 µM (inactive)
GI50 (Hs-578T): 46.5 µM (inactive)
GI50 (NCI/ADR-RES): > 100 µM (inactive)
GI50 (HL-60): 20.2 µM (inactive)
GI50 (SK-OV-3): 43.7 µM (inactive)
GI50 (HT-29): 23 µM (inactive)
GI50 (HCT-116): 24.9 µM (inactive)
GI50 (U-251): 41.9 µM (inactive)
GI50 (OVCAR-3): 41.1 µM (inactive)
GI50 (IGROV-1): 46.5 µM (inactive)
GI50 (EKVX): 48.9 µM (inactive)
GI50 (M14): 29.1 µM (inactive)
GI50 (MDA-MB-231): > 100 µM (inactive)
GI50 (OVCAR-4): 69 µM (inactive)
GI50 (NCI-H522): 24.1 µM (inactive)
GI50 (DU-145): > 100 µM (inactive)
GI50 (SF-295): 32.3 µM (inactive)
GI50 (SR): 14.5 µM (inactive)
GI50 (PC-3): 59.4 µM (inactive)
GI50 (A498): 72.6 µM (inactive)
GI50 (T47D): 20.7 µM (inactive)
GI50 (SNB-19): > 100 µM (inactive)
GI50 (CCRF-CEM): 18.1 µM (inactive)
GI50 (UACC-257): 35.3 µM (inactive)
GI50 (SK-MEL-5): 41 µM (inactive)
GI50 (SN12C): 89.7 µM (inactive)
GI50 (NCI-H460): 35 µM (inactive)
GI50 (COLO 205): 42.8 µM (inactive)
GI50 (SK-MEL-2): 20.7 µM (inactive)
GI50 (HOP-92): 20.7 µM (inactive)
GI50 (HCC 2998): 26.9 µM (inactive)
GI50 (HCT-15): 32.5 µM
GI50 (LOX IMVI): 16.3 µM (inactive)
GI50 (Malme-3M): 45 µM (inactive)
GI50 (SW-620): 33.2 µM (inactive)
GI50 (ACHN): 71.3 µM (inactive)
GI50 (NCI-H23): 31.7 µM (inactive)
GI50 (HOP-62): 42.1 µM (inactive)
GI50 (MDA-N): 36.1 µM (inactive)
GI50 (KM12): 31.9 µM (inactive)
GI50 (MDA-MB-435): 25 µM (inactive)
GI50 (RXF 393): 25.6 µM (inactive)
GI50 (SF-539): > 100 µM (inactive)
GI50 (OVCAR-5): 40.4 µM (inactive)
GI50 (A549): 44.7 µM (inactive)
GI50 (BT-549): 44 µM (inactive)
GI50 (K562): 20.6 µM (inactive)

COc1ccc([C@]23CCN4COC[C@@H]([C@H]42)C2(CC3)OCC(C)(C)CO2)cc1OC
GI50 (MOLT-4): > 100 µM (inactive)
GI50 (SF-268): > 100 µM (inactive)
GI50 (CAKI-1): > 100 µM (inactive)
GI50 (NCI-H226): > 100 µM (inactive)
GI50 (UACC-62): > 100 µM (inactive)
GI50 (TK-10): > 100 µM (inactive)
GI50 (OVCAR-8): > 100 µM (inactive)
GI50 (SNB-75): 53.3 µM (inactive)
GI50 (MCF7): > 100 µM (inactive)
GI50 (UO-31): > 100 µM (inactive)
GI50 (SK-MEL-28): > 100 µM (inactive)
GI50 (786-0): > 100 µM (inactive)
GI50 (Hs-578T): > 100 µM (inactive)
GI50 (NCI/ADR-RES): > 100 µM (inactive)
GI50 (HL-60): > 100 µM (inactive)
GI50 (SK-OV-3): > 100 µM (inactive)
GI50 (HT-29): 89.7 µM (inactive)
GI50 (HCT-116): > 100 µM (inactive)
GI50 (U-251): > 100 µM (inactive)
GI50 (IGROV-1): > 100 µM (inactive)
GI50 (EKVX): > 100 µM (inactive)
GI50 (M14): > 100 µM (inactive)
GI50 (MDA-MB-231): > 100 µM (inactive)
GI50 (OVCAR-4): > 100 µM (inactive)
GI50 (NCI-H522): > 100 µM (inactive)
GI50 (DU-145): > 100 µM (inactive)
GI50 (SF-295): > 100 µM (inactive)
GI50 (SR): > 100 µM (inactive)
GI50 (PC-3): > 100 µM (inactive)
GI50 (A498): > 100 µM (inactive)
GI50 (T47D): 66.5 µM (inactive)
GI50 (SNB-19): > 100 µM (inactive)
GI50 (CCRF-CEM): > 100 µM (inactive)
GI50 (UACC-257): > 100 µM (inactive)
GI50 (SK-MEL-5): > 100 µM (inactive)
GI50 (SN12C): > 100 µM (inactive)
GI50 (NCI-H460): > 100 µM (inactive)
GI50 (COLO 205): > 100 µM (inactive)
GI50 (SK-MEL-2): > 100 µM (inactive)
GI50 (HOP-92): 31.3 µM (inactive)
GI50 (HCC 2998): > 100 µM (inactive)
GI50 (HCT-15): > 100 µM
GI50 (LOX IMVI): > 100 µM (inactive)
GI50 (Malme-3M): > 100 µM (inactive)
GI50 (SW-620): > 100 µM (inactive)
GI50 (ACHN): > 100 µM (inactive)
GI50 (NCI-H23): > 100 µM (inactive)
GI50 (HOP-62): > 100 µM (inactive)
GI50 (MDA-N): > 100 µM (inactive)
GI50 (RPMI-8226): > 100 µM (inactive)
GI50 (KM12): > 100 µM (inactive)
GI50 (MDA-MB-435): > 100 µM (inactive)
GI50 (RXF 393): > 100 µM (inactive)
GI50 (OVCAR-5): > 100 µM (inactive)
GI50 (A549): > 100 µM (inactive)
GI50 (BT-549): > 100 µM (inactive)
GI50 (K562): > 100 µM (inactive)
